Test results from patent US11230550.
Read-outs that look alike come from different tables or passages of the source.

Details: rcm bond, Grubbs I, CH2Cl2, 40.0 °C

| Compound | ring closure, yield of all isomers (from C=CCCCCN(C[C@@H](O)[C@H](Cc1ccccc1)NC(=O)OC(C)(C)C)S(=O)(=O)c1ccc(OC)cc1COCC=C, 2.65 mM, 4.0 h) | ring closure, yield of all isomers (from C=CCCCCN(C[C@@H](O)[C@H](Cc1ccccc1)NC(=O)OC(C)(C)C)S(=O)(=O)c1ccc([N+](=O)[O-])cc1COCC=C, 1.625 mM, 3.0 h) |
| --- | --- | --- |
| COc1ccc2c(c1)COCC=CCCCCN(C[C@@H](O)[C@H](Cc1ccccc1)NC(=O)OC(C)(C)C)S2(=O)=O | 93% | – |
| CC(C)(C)OC(=O)N[C@@H](Cc1ccccc1)[C@H](O)CN1CCCCC=CCOCc2cc([N+](=O)[O-])ccc2S1(=O)=O | – | 92% |
